According to BindingDB's records for PubMed 32942081 (Jamia Millia Islamia, 2020):

Molecular target: T1, Amine oxidase [flavin-containing] B (Homo sapiens, UniProt P27338)
T1 sequence (P27338 whole entry): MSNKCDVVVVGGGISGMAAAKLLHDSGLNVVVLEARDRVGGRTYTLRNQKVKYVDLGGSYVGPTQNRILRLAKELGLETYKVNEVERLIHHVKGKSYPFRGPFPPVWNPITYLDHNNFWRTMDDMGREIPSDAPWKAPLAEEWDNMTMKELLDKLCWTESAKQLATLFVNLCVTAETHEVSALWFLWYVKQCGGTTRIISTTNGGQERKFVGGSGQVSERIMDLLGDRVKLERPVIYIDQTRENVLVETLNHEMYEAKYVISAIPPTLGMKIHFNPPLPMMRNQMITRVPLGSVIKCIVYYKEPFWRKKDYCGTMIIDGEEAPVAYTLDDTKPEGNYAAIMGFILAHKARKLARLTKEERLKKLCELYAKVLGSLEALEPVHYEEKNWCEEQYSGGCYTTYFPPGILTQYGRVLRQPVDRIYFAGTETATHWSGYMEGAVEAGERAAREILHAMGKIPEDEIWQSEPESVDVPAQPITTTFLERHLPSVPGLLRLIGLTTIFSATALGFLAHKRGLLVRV
Assay: Inhibition of human MAO-B using tyramine as substrate by amplex red assay

## Cc1ccc(C2=NO[C@@H](c3ccc(Cl)c(Cl)c3)C2)cc1
  IC50: 1.9 nM
